The target of one experiment is T1, WEE1 (Homo sapiens, UniProt P30291).
T1 construct: purchased Thermo Fisher PR7373A
The experiment in a line: Selectivity versus WEE1 assay (ADP-Glo enzymatic assay). Format: biochemical. To be noted: for pIC50: ADP-Glo; for PKMYT1 vs. WEE1 selectivity: fold difference in selectivity for PKMYT1 over WEE1. The gist of the method: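 ADP-Glo luminescence read-out after a 60 min reaction at 26° C, initiated by 30 µM ATP, with 15 nM enzyme in HEPES pH 7.5/MgCl2/EGTA/Brij-35 buffer containing 1% DMSO. Replicate IC50 values had to agree within 3-fold and fits needed r2 >0.9.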

For a further experiment, the system named is KYSE-30 cells. Description: Cancer cell line proliferation assay, ATP-based cell viability (Cell Titre Glow), KYSE-30 (normal CCNE1). To be noted: Homo sapiens, KYSE-30 cells (normal CCNE1), concentration that achieves 50% cell growth proliferation inhibition, read-out: KYSE30 Gl50. The method, then: (§1) Cancer cell lines with either normal (KYSE-30) or amplified CCNE1 expression (OVCAR 3 —ovarian cancer) were evaluated for their sensitivity to PKMYT1 inhibitors using Cell Titre Glow assay (Promega G7573) as endpoint to assess cell proliferation. The luminescence signal was read on a PHERAStar FS microplate reader (BMG Labtech). Data analysis was performed using Microsoft Excel® and Gl50 (concentration that achieves 50% cell growth proliferation inhibition) estimates generated with GraphPad Prism v9.

For another experiment, the target named is T2, Human PKMYT1 (Homo sapiens, UniProt Q99640).
T2 construct: Human PKMYT1 75-362 was cloned as a TEV cleavable 6xHis fusion; 6xHis (TEV cleavable) (cleaved yes); made in house; host or cells: bacterial cells
T2 sequence (Q99640 75-362): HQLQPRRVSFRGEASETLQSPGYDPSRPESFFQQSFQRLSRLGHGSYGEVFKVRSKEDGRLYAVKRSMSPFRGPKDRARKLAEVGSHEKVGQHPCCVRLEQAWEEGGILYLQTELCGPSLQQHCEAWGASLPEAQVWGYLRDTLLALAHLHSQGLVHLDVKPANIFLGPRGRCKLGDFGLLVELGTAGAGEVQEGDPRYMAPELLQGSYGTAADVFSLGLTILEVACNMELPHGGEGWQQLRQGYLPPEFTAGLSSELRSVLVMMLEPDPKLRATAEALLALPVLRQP
Description: PKMYT1 biochemical ADP-Glo enzymatic assay. To be noted: ADP-Glo. The gist of the method: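 Luminescent ADP-Glo Max read-out of ADP produced by 15 nM PKMYT1 (residues 75-362, bacterial, His-tag removed) from 500 µM ATP without peptide substrate. Reaction: 50 mM HEPES pH 7.5, 10 mM MgCl2, 1 mM EGTA, 0.01% Brij-35, 60 min, 26 °C. IC50 values fitted from 10-point curves.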

Another experiment deals with OVCAR 3 cells. The experiment in a line: Cancer cell line proliferation assay, ATP-based cell viability (Cell Titre Glow), OVCAR 3 (CCNE1-amplified). To be noted: KYSE30 (normal CCNE1) GI50 vs. OVCAR 3 (CCNE1-amplified) GI50. The method, then: as §1
Setting [1] is: 15 nM WEE1, 60 minutes at 26° C., banded.
[2] abbreviates: banded, ">N" = at least in this band but could be higher.
The mark [3] stands for this setting: 15 nM PKMYT1 kinase domain, 500 µM ATP, 60 minutes at 26° C., banded.
Setting [4] is: PKMYT1 kinase domain 15 nM, banded values.

pIC50: −log10 of the molar value. Some results are limits rather than exact numbers.

T1 sequence (P30291 whole entry): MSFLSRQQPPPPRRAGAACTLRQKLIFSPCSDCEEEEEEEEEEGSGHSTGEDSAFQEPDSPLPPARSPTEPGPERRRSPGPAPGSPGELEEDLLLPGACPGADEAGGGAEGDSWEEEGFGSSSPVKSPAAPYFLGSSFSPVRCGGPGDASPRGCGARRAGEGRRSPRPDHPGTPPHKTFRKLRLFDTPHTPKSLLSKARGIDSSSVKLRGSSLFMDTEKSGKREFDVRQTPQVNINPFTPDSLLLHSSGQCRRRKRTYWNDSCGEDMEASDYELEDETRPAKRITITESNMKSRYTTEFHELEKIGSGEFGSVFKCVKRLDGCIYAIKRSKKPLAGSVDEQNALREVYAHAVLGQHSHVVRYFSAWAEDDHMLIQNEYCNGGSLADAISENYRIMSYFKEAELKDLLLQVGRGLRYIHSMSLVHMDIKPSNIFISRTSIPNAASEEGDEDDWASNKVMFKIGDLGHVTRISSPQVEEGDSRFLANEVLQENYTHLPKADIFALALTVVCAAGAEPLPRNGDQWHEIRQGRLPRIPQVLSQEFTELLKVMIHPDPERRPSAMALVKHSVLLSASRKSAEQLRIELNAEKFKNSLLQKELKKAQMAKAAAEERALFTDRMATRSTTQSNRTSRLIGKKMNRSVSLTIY

For the compound `Cc1cn(-c2cc(Cl)cnc2F)nc1Nc1ncc(C(=O)Nc2c(C)ccc(O)c2C)s1` [BAA-377, 2-((1-(5-chloro-2-fluoropyridin-3-yl)-4-methyl-1H-pyrazol-3-yl)amino)-N-(3-hydroxy-2,6-dimethylphenyl)thiazole-5-carboxamide], the pIC50 against WEE1 (setting [1]) is 4.96 to 6.00; against Human PKMYT1 (setting [3]), 6.00 to 7.30. Besides, on WEE1 (setting [2]), the “PKMYT1 vs. WEE1 selectivity” value was “W (10-<100 fold)”. Besides, the GI50 in the experiment on KYSE-30 cells was in the range of 500 to 5000 nM. For the same compound, the “Selectivity ratio KYSE30 Gl50 vs. OVCAR3 Gl50” value in the experiment with OVCAR 3 cells is recorded as “X (3-20 fold)”.
Taken in the same sequence, the figures for `Cc1cn(-c2cnc(Cl)cc2Br)nc1Nc1ncc(C(=O)Nc2c(C)ccc(O)c2C)s1` [BAA-378] were 4.96 to 6.00, 6.00 to 7.30, “W (10-<100 fold)”, 500 to 5000 nM and “X (3-20 fold)”.
In the case of `Cc1ccc(O)c(C)c1NC(=O)c1cnc(Nc2nn(-c3ccccn3)cc2Cl)s1` [BAA-383, 2-((4-chloro-1-(pyridin-2-yl)-1H-pyrazol-3-yl)amino)-N-(3-hydroxy-2,6-dimethylphenyl) thiazole-5-carboxamide], the pIC50 at WEE1 (setting [1]) is less than 4.96; against Human PKMYT1 (setting [3]), more than 7.30. Further, the “PKMYT1 vs. WEE1 selectivity” value at WEE1 (setting [2]) is “Y (1000-5000 fold)”. In addition, the GI50 in the experiment with KYSE-30 cells fell in the range of 500 to 5000 nM. For the same compound, the “Selectivity ratio KYSE30 Gl50 vs. OVCAR3 Gl50” value with OVCAR 3 cells is given as “X (3-20 fold)”.
Take `Cc1cn(-c2scnc2C)nc1Nc1ncc(C(=O)Nc2c(C)ccc(O)c2C)s1` [BAA-386, N-(3-hydroxy-2,6-dimethylphenyl)-2-((4-methyl-1-(4-methylthiazol-5-yl)-1H-pyrazol-3-yl)amino)thiazole-5-carboxamide]: the pIC50 on WEE1 (setting [1]) is 4.96 to 6.00; at Human PKMYT1 (setting [3]) it was more than 7.30. The “PKMYT1 vs. WEE1 selectivity” value on WEE1 (setting [2]) is recorded as “X (100-<1000 fold)”. Further, in the experiment with KYSE-30 cells, the GI50 is more than 5000 nM. In the experiment with OVCAR 3 cells, the “Selectivity ratio KYSE30 Gl50 vs. OVCAR3 Gl50” value is given as “Y (>20 fold)”.
Regarding `Cc1cn(-c2cn(C)nc2C)nc1Nc1ncc(C(=O)Nc2c(C)ccc(O)c2C)s1` [BAA-392, N-(3-hydroxy-2,6-dimethylphenyl)-2-((1′, 3′,4-trimethyl-1′H-[1,4′-bipyrazol]-3-yl)amino)thiazole-5-carboxamide], the pIC50 against WEE1 (setting [1]) was 4.96 to 6.00; at Human PKMYT1 (setting [3]) it was more than 7.30. Also, at WEE1 (setting [2]), the “PKMYT1 vs. WEE1 selectivity” value was “X (100-<1000 fold)”. In addition, in the experiment on KYSE-30 cells, the GI50 was more than 5000 nM. Further, the “Selectivity ratio KYSE30 Gl50 vs. OVCAR3 Gl50” value in the experiment on OVCAR 3 cells was “Y (>20 fold)”.
On to `Cc1cn(-c2ncc(C(=O)Nc3c(C)ccc(O)c3C)s2)nc1Nc1ncc(C(=O)Nc2c(C)ccc(O)c2C)s1` [BAA-393, N-(3-hydroxy-2,6-dimethylphenyl)-2-((1-(5-((3-hydroxy-2,6-dimethylphenyl)carbamoyl)thiazol-2-yl)-4-methyl-1H-pyrazol-3-yl)amino)thiazole-5-carboxamide], for which the pIC50 at WEE1 (WEE1 15 nM, banded values) was less than 4.96; at Human PKMYT1 (setting [4]), 6.00 to 7.30. Besides, on WEE1 (banded), the “PKMYT1 vs. WEE1 selectivity” value is on record as “X (100-<1000 fold)”. Further, the GI50 with KYSE-30 cells lay within 500 to 5000 nM. For the same compound, the “Selectivity ratio KYSE30 Gl50 vs. OVCAR3 Gl50” value with OVCAR 3 cells was “X (3-20 fold)”.
Taken in the same sequence, the figures for `Cc1ccc(O)c(C)c1NC(=O)c1cnc(Nc2cccc(-c3cnn(C(F)F)c3)n2)s1` [BAA-399, 2-((6-(1-(difluoromethyl)-1H-pyrazol-4-yl)pyridin-2-yl)amino)-N-(3-hydroxy-2,6-dimethylphenyl)thiazole-5-carboxamide] were 4.96 to 6.00, more than 7.30, “X (100-<1000 fold)”, 500 to 5000 nM and “Y (>20 fold)”.
As for `Cc1ccc(O)c(C)c1NC(=O)c1cnc(Nc2cccc(-c3ncccn3)n2)s1` [BAA-403, N-(3-hydroxy-2,6-dimethylphenyl)-2-((6-(pyrimidin-2-yl)pyridin-2-yl)amino)thiazole-5-carboxamide], the pIC50 against WEE1 (WEE1 15 nM, banded values) is 6.00 to 7.30; on Human PKMYT1 (setting [4]), more than 7.30. For the same compound, the “PKMYT1 vs. WEE1 selectivity” value on WEE1 (banded) is on record as “W (10-<100 fold)”. The GI50 with KYSE-30 cells was more than 5000 nM. The “Selectivity ratio KYSE30 Gl50 vs. OVCAR3 Gl50” value in the experiment with OVCAR 3 cells is “Y (>20 fold)”.
Turning to `COc1cccc(Nc2ncc(C(=O)Nc3c(C)ccc(O)c3C)s2)n1` [BAA-416, N-(3-hydroxy-2,6-dimethylphenyl)-2-((6-methoxypyridin-2-yl)amino)thiazole-5-carboxamide], the pIC50 is 4.96 to 6.00 against WEE1 (WEE1 15 nM, banded values) and more than 7.30 against Human PKMYT1 (setting [4]). Further, the “PKMYT1 vs. WEE1 selectivity” value on WEE1 (banded) is given as “X (100-<1000 fold)”. For the same compound, in the experiment with KYSE-30 cells, the GI50 is 500 to 5000 nM. The “Selectivity ratio KYSE30 Gl50 vs. OVCAR3 Gl50” value in the experiment with OVCAR 3 cells was “Y (>20 fold)”.
Take `Cc1ccc(O)c(C)c1NC(=O)c1cnc(Nc2cccc(OC(C)C)n2)s1` [BAA-429, N-(3-hydroxy-2,6-dimethylphenyl)-2-((6-isopropoxypyridin-2-yl)amino)thiazole-5-carboxamide]: the pIC50 is less than 4.96 on WEE1 (WEE1 15 nM, banded values) and more than 7.30 on Human PKMYT1 (setting [4]). Besides, the “PKMYT1 vs. WEE1 selectivity” value on WEE1 (banded) is on record as “X (100-<1000 fold)”. The GI50 with KYSE-30 cells was less than 500 nM. In the experiment with OVCAR 3 cells, the “Selectivity ratio KYSE30 Gl50 vs. OVCAR3 Gl50” value is “Y (>20 fold)”.
As to `Cc1ccc(O)c(C)c1NC(=O)c1cnc(Nc2ncnc3sccc23)s1` [BAA-447, N-(3-hydroxy-2,6-dimethylphenyl)-2-(thieno[2,3-d]pyrimidin-4-ylamino)thiazole-5-carboxamide], the pIC50 at WEE1 (WEE1 15 nM, banded values) was 4.96 to 6.00; on Human PKMYT1 (setting [4]), more than 7.30. The “PKMYT1 vs. WEE1 selectivity” value at WEE1 (banded) is “X (100-<1000 fold)”. In addition, the GI50 in the experiment on KYSE-30 cells is more than 5000 nM. Also, in the experiment with OVCAR 3 cells, the “Selectivity ratio KYSE30 Gl50 vs. OVCAR3 Gl50” value is on record as “Y (>20 fold)”.
With `Cc1ccc(O)c(C)c1NC(=O)c1cnc(Nc2ncnn3cccc23)s1` [BAA-450, N-(3-hydroxy-2,6-dimethylphenyl)-2-(pyrrolo[2,1-f][1,2,4]triazin-4-ylamino)thiazole-5-carboxamide], the pIC50 against WEE1 (WEE1 15 nM, banded values) is 4.96 to 6.00; on Human PKMYT1 (setting [4]), more than 7.30. For the same compound, on WEE1 (banded), the “PKMYT1 vs. WEE1 selectivity” value is on record as “X (100-<1000 fold)”. Further, the GI50 with KYSE-30 cells is more than 5000 nM. Besides, the “Selectivity ratio KYSE30 Gl50 vs. OVCAR3 Gl50” value in the experiment on OVCAR 3 cells is listed as “X (3-20 fold)”.
For `Cc1ccc(O)c(C)c1NC(=O)c1cnc(Nc2nn(CC(F)(F)F)c3ccccc23)s1` [BAA-457, N-(3-hydroxy-2,6-dimethylphenyl)-2-((1-(2,2,2-trifluoroethyl)-1H-indazol-3-yl)amino)thiazole-5-carboxamide], the negative-log IC50 (pIC50) against WEE1 (WEE1 15 nM, banded values) was 4.96 to 6.00; against Human PKMYT1 (setting [4]), more than 7.30. Moreover, the “PKMYT1 vs. WEE1 selectivity” value at WEE1 (banded) was “X (100-<1000 fold)”. The GI50 with KYSE-30 cells lay within 500 to 5000 nM. In the experiment on OVCAR 3 cells, the “Selectivity ratio KYSE30 Gl50 vs. OVCAR3 Gl50” value is given as “Y (>20 fold)”.
On to `CCCn1nc(Nc2ncc(C(=O)Nc3c(C)ccc(O)c3C)s2)c2ccccc21` [BAA-460, N-(3-hydroxy-2,6-dimethylphenyl)-2-((1-propyl-1H-indazol-3-yl)amino)thiazole-5-carboxamide], for which the negative-log IC50 (pIC50) at WEE1 (WEE1 15 nM, banded values) was 4.96 to 6.00; against Human PKMYT1 (setting [4]), 6.00 to 7.30. Further, on WEE1 (banded), the “PKMYT1 vs. WEE1 selectivity” value is given as “X (100-<1000 fold)”. Also, in the experiment on KYSE-30 cells, the GI50 lay in the range of 500 to 5000 nM. In the experiment on OVCAR 3 cells, the “Selectivity ratio KYSE30 Gl50 vs. OVCAR3 Gl50” value is recorded as “Y (>20 fold)”.
`CCn1cc(C)c(Nc2ncc(C(=O)Nc3c(C)ccc(O)c3C)s2)n1` [BAA-477, 2-((1-ethyl-4-methyl-1H-pyrazol-3-yl)amino)-N-(3-hydroxy-2,6-dimethylphenyl)thiazole-5-carboxamide]: the negative-log IC50 (pIC50) is 4.96 to 6.00 at WEE1 (WEE1 15 nM, banded values) and more than 7.30 against Human PKMYT1 (setting [4]). On WEE1 (banded), the “PKMYT1 vs. WEE1 selectivity” value was “X (100-<1000 fold)”. The GI50 in the experiment with KYSE-30 cells is more than 5000 nM. Moreover, in the experiment with OVCAR 3 cells, the “Selectivity ratio KYSE30 Gl50 vs. OVCAR3 Gl50” value was “Y (>20 fold)”.
`CCN(C)C(=O)Cn1cc(C)c(Nc2ncc(C(=O)Nc3c(C)ccc(O)c3C)s2)n1` [BAA-489, 2-((1-(2-(ethyl(methyl)amino)-2-oxoethyl)-4-methyl-1H-pyrazol-3-yl)amino)-N-(3-hydroxy-2,6-dimethylphenyl)thiazole-5-carboxamide]: the pIC50 against WEE1 (WEE1 15 nM, banded values) was 4.96 to 6.00; against Human PKMYT1 (setting [4]), more than 7.30. The “PKMYT1 vs. WEE1 selectivity” value on WEE1 (banded) was “X (100-<1000 fold)”. Besides, the GI50 with KYSE-30 cells is more than 5000 nM. Also, the “Selectivity ratio KYSE30 Gl50 vs. OVCAR3 Gl50” value with OVCAR 3 cells is on record as “Y (>20 fold)”.
